Experimental findings from ChEMBL document CHEMBL3526064, “Sequential metabolism of AMG 487, a novel CXCR3 antagonist, results in formation of quinone reactive metabolites that covalently modify CYP3A4 Cys239 and cause time-dependent inhibition of the enzyme” (Drug Metab Dispos, 2012) are described below.

In data set [1] the target is T1, CYP3A4 (Homo sapiens, UniProt P08684). Kind of data set: (§1) Inhibition of CYP3A4 in human liver microsomes using testosterone as substrate assessed as residual enzyme activity after 2 to 10 mins by LC-MS/MS analysis. Format: ADME. Conditions: human, liver microsomes, probe testosterone; call rule not given here.
Data set [2] deals with T2, Cytochrome P450 3A4 (Homo sapiens, UniProt P08684). The data set is described as §1. Format: ADME.
Data set [3] addresses T2, Cytochrome P450 3A4. Briefly: Ratio of Kinact to Ki for CYP3A4 in human liver microsomes using midazolam as substrate. In kind it is ADME. Background: Liver microsomes are a subcellular fraction often used to study metabolism.
The target in data set [4] is T2, Cytochrome P450 3A4. Kind of data set: Ratio of Kinact to Ki for CYP3A4 in human liver microsomes using testosterone as substrate. In kind it is ADME.
Data set [5] concerns the target T2, Cytochrome P450 3A4. Kind of data set: Time dependent inhibition of CYP3A4 in human liver microsomes assessed as conversion of testosterone to 6beta-hydroxytestosterone 0.1 to 30 uM by LC-MS/MS analysis. Format: ADME.
The target of data set [6] is T1, CYP3A4. Kind of data set: Ratio of IC50 for CYP3A4 in human liver microsomes using midazolam as substrate preincubated for 30 mins followed by 10-fold dilution and substrate addition to IC50 for CYP3A4 in human liver microsomes using midazolam as substrate preincubated for 30 mins followed by 10-fold dilution and substrate addition in presence of NADPH. Conditions: probe midazolam, read-out: Ratio IC50.

For data set [7], the target named is T2, Cytochrome P450 3A4. Kind of data set: Time dependent inhibition of CYP3A4 in human liver microsomes using midazolam as substrate preincubated for 30 mins followed by 10-fold dilution and substrate addition by LC-MS/MS analysis in presence of NADPH. Format: ADME.
For data set [8], the target named is T2, Cytochrome P450 3A4. Briefly: Time dependent inhibition of CYP3A4 in human liver microsomes using midazolam as substrate preincubated for 30 mins followed by 10-fold dilution and substrate addition by LC-MS/MS analysis. In kind it is ADME.
Data set [9] concerns the target T2, Cytochrome P450 3A4. Briefly: Time dependent inhibition of CYP3A4 in human liver microsomes using testosterone as substrate preincubated for 30 mins followed by 10-fold dilution and substrate addition by LC-MS/MS analysis. In kind it is ADME.
For data set [10], the target named is T2, Cytochrome P450 3A4. Briefly: Inactivation of recombinant CYP3A4 (unknown origin) using midazolam as substrate assessed as partition ratio up to 30 uM preincubated for 5 mins followed by dialysis measured after 4 hrs. In kind it is ADME. Conditions: recombinant enzyme.
The target in data set [11] is T2, Cytochrome P450 3A4. Briefly: Time dependent inhibition of CYP3A4 in human liver microsomes assessed as conversion of midazolam to 1'-hydroxymidazolam at 0.1 to 30 uM by LC-MS/MS analysis. Format: ADME.
For data set [12], the target named is T1, CYP3A4. Kind of data set: Ratio of IC50 for CYP3A4 in human liver microsomes using testosterone as substrate preincubated for 30 mins followed by 10-fold dilution and substrate addition to IC50 for CYP3A4 in human liver microsomes using testosterone as substrate preincubated for 30 mins followed by 10-fold dilution and substrate addition in presence of NADPH. The following applies: probe testosterone, read-out: Ratio IC50.

Data set [13] deals with T2, Cytochrome P450 3A4. Kind of data set: Time dependent inhibition of CYP3A4 in human liver microsomes using testosterone as substrate preincubated for 30 mins followed by 10-fold dilution and substrate addition by LC-MS/MS analysis in presence of NADPH. In kind it is ADME.
The target in data set [14] is T2, Cytochrome P450 3A4. Kind of data set: Inhibition of CYP3A4 in human liver microsomes using midazolam as substrate assessed as unbound inhibitor concentration required for half maximal enzyme inactivation after 2 to 10 mins by LC-MS/MS analysis. Format: ADME.
Data set [15] deals with T2, Cytochrome P450 3A4. Kind of data set: Inactivation of recombinant CYP3A4 (unknown origin) using testosterone as substrate assessed as partition ratio up to 30 uM preincubated for 5 mins followed by dialysis measured after 4 hrs. In kind it is ADME. The following applies: recombinant enzyme.
For data set [16], the target named is T1, CYP3A4. Briefly: (§2) Inhibition of CYP3A4 in human liver microsomes using midazolam as substrate assessed as residual enzyme activity after 2 to 10 mins by LC-MS/MS analysis. The following applies: human, liver microsomes, probe midazolam. In kind it is ADME.
The target in data set [17] is T2, Cytochrome P450 3A4. The description is as §2. In kind it is ADME.
Data set [18] addresses T2, Cytochrome P450 3A4. Kind of data set: Inhibition of CYP3A4 in human liver microsomes using testosterone as substrate assessed as unbound inhibitor concentration required for half maximal enzyme inactivation after 2 to 10 mins by LC-MS/MS analysis. In kind it is ADME.
For data set [19], the target named is T2, Cytochrome P450 3A4. Briefly: Drug metabolism assessed as recombinant CYP3A4 (unknown origin)-mediated (R)-N-(1-(3-(2,4-dihydroxyphenyl)-4-oxo-3,4-dihydropyrido[2,3-d]pyrimidin-2-yl)ethyl)-N-(pyridin-3-ylmethyl)-2-(4-(trifluoromethoxy)phenyl)acetamide formation preincubated for 5 mins followed NADPH addition measured after 45 mins by TIC mass chromatographic analysis in presence of GSH. In kind it is ADME. Conditions: recombinant enzyme, 0.75 h.

The target of data set [20] is T2, Cytochrome P450 3A4. Briefly: Drug metabolism assessed as recombinant CYP3A4 (unknown origin)-mediated (R)-N-(1-(3-(3,4-dihydroxyphenyl)-4-oxo-3,4-dihydropyrido[2,3-d]pyrimidin-2-yl)ethyl)-N-(pyridin-3-ylmethyl)-2-(4-(trifluoromethoxy)phenyl)acetamide formation preincubated for 5 mins followed NADPH addition measured after 45 mins by TIC mass chromatographic analysis in presence of GSH. In kind it is ADME. The following applies: recombinant enzyme, 0.75 h.

The target in data set [21] is T2, Cytochrome P450 3A4. Briefly: Drug metabolism assessed as recombinant CYP3A4 (unknown origin)-mediated compound formation treated with [3H]-(R)-N-(1-(3-(4-hydroxyphenyl)-4-oxo-3,4-dihydropyrido[2,3-d]pyrimidin-2-yl)ethyl)-N-(pyridin-3-ylmethyl)-2-(4-(trifluoromethoxy)phenyl)acetamide preincubated for 5 mins followed NADPH addition measured after 45 mins by TIC mass chromatographic analysis in presence of GSH. The following applies: recombinant enzyme, 0.75 h. In kind it is ADME.

The target of data set [22] is T2, Cytochrome P450 3A4. Briefly: Drug metabolism assessed as recombinant CYP3A4 (unknown origin)-compound formation treated with (R)-N-(1-(3-(4-hydroxyphenyl)-4-oxo-3,4-dihydropyrido[2,3-d]pyrimidin-2-yl)ethyl)-N-([2-3H]pyridin-3-ylmethyl)-2-(4-(trifluoromethoxy)phenyl)acetamide preincubated for 5 mins followed NADPH addition measured after 45 mins by TIC mass chromatographic analysis. Format: ADME. The following applies: recombinant enzyme, 0.75 h.

Molecules are shown by their SMILES.

T1 sequence (P08684 whole entry): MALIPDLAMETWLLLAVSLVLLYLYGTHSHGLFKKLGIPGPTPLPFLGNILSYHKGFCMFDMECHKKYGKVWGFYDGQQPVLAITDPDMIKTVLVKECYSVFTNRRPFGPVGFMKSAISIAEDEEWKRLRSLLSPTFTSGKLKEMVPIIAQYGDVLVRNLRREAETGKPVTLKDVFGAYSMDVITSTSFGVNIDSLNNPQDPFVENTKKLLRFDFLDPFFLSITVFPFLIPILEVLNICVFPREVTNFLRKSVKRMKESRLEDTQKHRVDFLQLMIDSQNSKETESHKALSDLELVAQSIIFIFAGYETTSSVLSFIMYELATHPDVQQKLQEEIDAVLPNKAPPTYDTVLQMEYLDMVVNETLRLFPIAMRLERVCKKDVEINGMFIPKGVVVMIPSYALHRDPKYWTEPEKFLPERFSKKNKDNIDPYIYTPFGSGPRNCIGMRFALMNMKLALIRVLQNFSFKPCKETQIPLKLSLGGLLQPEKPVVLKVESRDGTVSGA
T2 sequence (P08684 whole entry): as above

Consider `C[C@H](c1nc2ncccc2c(=O)n1-c1ccc(O)cc1)N(Cc1cccnc1)C(=O)Cc1ccc(OC(F)(F)F)cc1`, for which the values for the inactivation rate constant (kinact) at CYP3A4 [1] and on CYP3A4 [16] were 0.00165 s⁻¹ and 0.00147 s⁻¹, respectively. The Ki is 1900 nM at Cytochrome P450 3A4 [2], 730 nM at Cytochrome P450 3A4 [14], 1900 nM at Cytochrome P450 3A4 [17] and 740 nM on Cytochrome P450 3A4 [18]. Besides, the Ratio was 0.12 mL/min/nmol at Cytochrome P450 3A4 [3], 0.13 mL/min/nmol on Cytochrome P450 3A4 [4], 36 on Cytochrome P450 3A4 [10] and 36 at Cytochrome P450 3A4 [15]. In addition, the “inhibition (INH)” value at Cytochrome P450 3A4 [5] and at Cytochrome P450 3A4 [11] was “Active” throughout. Further, the IC50 shift at 30 min on CYP3A4 [6] was determined as 24; at CYP3A4 [12], 31. Also, the half-maximal inhibitory concentration (IC50) (commonly the concentration that inhibits the measured activity by half) amounted to 27 nM on Cytochrome P450 3A4 [7], 650 nM on Cytochrome P450 3A4 [8], 2100 nM against Cytochrome P450 3A4 [9] and 68 nM at Cytochrome P450 3A4 [13].
For the compound `[3H]c1ncccc1CN(C(=O)Cc1ccc(OC(F)(F)F)cc1)[C@H](C)c1nc2ncccc2c(=O)n1-c1ccc(O)cc1`, the Drug metabolism result at Cytochrome P450 3A4 [19] and at Cytochrome P450 3A4 [20] was “metabolite_detected” each time.
For `C[C@H](c1nc2ncccc2c(=O)n1-c1ccc(O)cc1)N(Cc1ccc[n+]([O-])c1)C(=O)Cc1ccc(OC(F)(F)F)cc1`, the Drug metabolism entry on Cytochrome P450 3A4 [21] is reported as “metabolite_detected”.
With `C[C@H](c1nc2ncccc2c(=O)n1-c1ccc(O)c(O)c1)N(Cc1cccnc1)C(=O)Cc1ccc(OC(F)(F)F)cc1`, at Cytochrome P450 3A4 [22], the Drug metabolism entry was “metabolite_detected”.
On the same count and under the same terms, the result for `C[C@H](c1nc2ncccc2c(=O)n1-c1ccc(O)cc1O)N(Cc1cccnc1)C(=O)Cc1ccc(OC(F)(F)F)cc1` reads “metabolite_detected”; that for `C[C@H](c1nc2ncccc2c(=O)n1-c1cc(O)c(O)cc1SC[C@H](NC(=O)[C@@H](N)CCC(=O)O)C(=O)NCC(=O)O)N(Cc1cccnc1)C(=O)Cc1ccc(OC(F)(F)F)cc1`, “metabolite_detected”.
In the case of `C[C@H](c1nc2ncccc2c(=O)n1-c1cc(O)c(O)c(SC[C@H](NC(=O)[C@@H](N)CCC(=O)O)C(=O)NCC(=O)O)c1)N(Cc1cccnc1)C(=O)Cc1ccc(OC(F)(F)F)cc1`, on Cytochrome P450 3A4 [22], the Drug metabolism result was “metabolite_detected”.
In the case of `C[C@H](c1nc2ncccc2c(=O)n1-c1c(O)cc(O)cc1SC[C@H](NC(=O)[C@@H](N)CCC(=O)O)C(=O)NCC(=O)O)N(Cc1cccnc1)C(=O)Cc1ccc(OC(F)(F)F)cc1`, the Drug metabolism result on Cytochrome P450 3A4 [22] is reported as “metabolite_detected”.
Take `C[C@H](c1nc2ncccc2c(=O)n1-c1cc(SC[C@H](NC(=O)[C@@H](N)CCC(=O)O)C(=O)NCC(=O)O)c(O)cc1O)N(Cc1cccnc1)C(=O)Cc1ccc(OC(F)(F)F)cc1`: the Drug metabolism result on Cytochrome P450 3A4 [22] is listed as “metabolite_detected”.
Take `CC(c1nc2ncccc2c(=O)n1-c1ccc(O)c(O)c1SC[C@H](NC(=O)[C@@H](N)CCC(=O)O)C(=O)NCC(=O)O)N(Cc1cccnc1)C(=O)Cc1ccc(OC(F)(F)F)cc1` (single isomer, unassigned): the Drug metabolism entry on Cytochrome P450 3A4 [22] is on record as “metabolite_detected”.
As for `CC(c1nc2ncccc2c(=O)n1-c1ccc(O)c(SC[C@H](NC(=O)[C@@H](N)CCC(=O)O)C(=O)NCC(=O)O)c1O)N(Cc1cccnc1)C(=O)Cc1ccc(OC(F)(F)F)cc1` (single isomer, unassigned), at Cytochrome P450 3A4 [22], the Drug metabolism entry was “metabolite_detected”.
